Where “and” joins values, the source holds several entries; their conditions need not be identical. Equal entries are not always repeated. Entries after “also recorded” stand apart in the source; their conditions may differ.
Legend:
[1] = biological target: honeybee Para channel (Apis mellifera, UniProt C9D7C5); experiment: Two-microelectrode voltage-clamp of Xenopus oocytes co-expressing Para channel and TipE; pyrethroid-induced tail currents; format: cell-based; conditions: for tail current induction: after conditioning pulses (-80mV to -20mV, 100 Hz), Para + TipE; for Hill coefficient: Hill fit of dose-response curve of tail current
Chain of honeybee Para channel (C9D7C5 1-2044): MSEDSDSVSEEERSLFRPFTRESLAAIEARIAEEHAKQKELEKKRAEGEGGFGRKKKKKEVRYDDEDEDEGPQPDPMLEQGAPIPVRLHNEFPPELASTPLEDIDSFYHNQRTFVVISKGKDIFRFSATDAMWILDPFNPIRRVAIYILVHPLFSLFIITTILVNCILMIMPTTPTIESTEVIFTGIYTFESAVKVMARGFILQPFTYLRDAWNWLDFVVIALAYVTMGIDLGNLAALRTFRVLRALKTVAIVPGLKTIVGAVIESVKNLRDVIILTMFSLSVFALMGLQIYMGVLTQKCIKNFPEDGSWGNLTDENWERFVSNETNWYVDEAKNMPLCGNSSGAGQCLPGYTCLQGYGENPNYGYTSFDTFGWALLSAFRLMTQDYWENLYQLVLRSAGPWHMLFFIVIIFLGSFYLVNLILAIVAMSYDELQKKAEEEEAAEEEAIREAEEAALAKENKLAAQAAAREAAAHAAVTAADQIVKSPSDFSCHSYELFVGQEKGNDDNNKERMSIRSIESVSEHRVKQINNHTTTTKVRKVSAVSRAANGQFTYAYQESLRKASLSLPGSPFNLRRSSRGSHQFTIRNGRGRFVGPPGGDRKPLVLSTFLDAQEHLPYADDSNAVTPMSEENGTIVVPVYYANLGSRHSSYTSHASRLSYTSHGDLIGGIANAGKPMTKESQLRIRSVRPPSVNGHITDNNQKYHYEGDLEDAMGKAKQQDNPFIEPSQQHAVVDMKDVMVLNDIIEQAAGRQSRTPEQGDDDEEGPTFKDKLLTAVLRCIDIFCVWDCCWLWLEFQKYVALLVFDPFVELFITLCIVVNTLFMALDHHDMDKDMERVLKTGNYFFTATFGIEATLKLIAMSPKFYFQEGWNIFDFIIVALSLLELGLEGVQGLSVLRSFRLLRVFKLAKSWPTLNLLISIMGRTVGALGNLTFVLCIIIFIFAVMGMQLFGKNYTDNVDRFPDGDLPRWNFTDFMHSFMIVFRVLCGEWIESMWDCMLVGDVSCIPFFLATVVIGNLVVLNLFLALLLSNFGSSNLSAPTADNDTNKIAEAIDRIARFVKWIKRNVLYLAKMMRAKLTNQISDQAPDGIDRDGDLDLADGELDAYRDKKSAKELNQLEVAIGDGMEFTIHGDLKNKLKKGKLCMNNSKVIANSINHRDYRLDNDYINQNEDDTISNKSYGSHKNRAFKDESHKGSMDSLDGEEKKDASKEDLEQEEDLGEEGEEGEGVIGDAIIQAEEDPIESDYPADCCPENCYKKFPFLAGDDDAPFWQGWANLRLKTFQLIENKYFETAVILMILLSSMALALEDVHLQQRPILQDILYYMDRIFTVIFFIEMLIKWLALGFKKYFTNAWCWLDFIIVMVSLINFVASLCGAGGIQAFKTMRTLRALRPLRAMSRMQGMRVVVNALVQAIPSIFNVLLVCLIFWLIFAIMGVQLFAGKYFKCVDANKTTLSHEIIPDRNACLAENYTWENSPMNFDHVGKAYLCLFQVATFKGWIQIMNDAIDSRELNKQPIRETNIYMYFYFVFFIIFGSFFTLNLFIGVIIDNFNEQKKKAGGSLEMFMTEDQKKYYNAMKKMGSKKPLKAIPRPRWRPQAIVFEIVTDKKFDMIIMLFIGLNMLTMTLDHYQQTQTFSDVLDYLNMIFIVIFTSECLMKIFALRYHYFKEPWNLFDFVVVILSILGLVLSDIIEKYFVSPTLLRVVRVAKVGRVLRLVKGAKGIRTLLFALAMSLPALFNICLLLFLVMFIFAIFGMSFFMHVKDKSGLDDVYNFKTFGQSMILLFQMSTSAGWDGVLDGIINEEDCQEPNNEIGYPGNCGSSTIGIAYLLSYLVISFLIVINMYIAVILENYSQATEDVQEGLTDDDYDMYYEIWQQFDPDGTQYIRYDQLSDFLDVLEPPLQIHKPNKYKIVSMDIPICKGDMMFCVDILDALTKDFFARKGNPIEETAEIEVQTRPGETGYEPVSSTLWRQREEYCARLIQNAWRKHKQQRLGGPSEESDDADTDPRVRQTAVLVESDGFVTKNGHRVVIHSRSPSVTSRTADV
Experimental: Xenopus oocytes were handled in accordance with the principles and guidelines of the Université Laval animal protection committee and the Canadian Council on Animal Care. […] They were then treated with 2 mg/ml collagenase (Collagenase type 1A from Clostridium histolyticum, Sigma) in OR2 solution for 1 h. They were then incubated for at least 1 h at 18°C in OR3 solution. Stage IV and V oocytes were microinjected with mRNA corresponding to the Para channel and the selected regulatory subunit (1 µg/µl for Para and 0.3 µg/µl for regulatory subunits, 50 nl/oocyte). The injected oocytes were incubated at 18°C in OR3 solution for at least 12 h before taking recordings.
Macroscopic currents from mRNA-injected oocytes were recorded in Ringer's solution using the two-microelectrode voltage-clamp technique. The membrane potential for the two-microelectrode voltage-clamp technique was controlled using a Warner oocyte clamp (Warner Instrument Corp.). The currents were filtered at 5 kHz (-3 dB; four-pole Bessel filter). The headstage of the Warner amplifier was attached to a plastic pool containing a 3M NaCl solution through a silver chloride wire connected to the bath solution using an agar bridge. The bridge contained 3% agar (w/v), 500 mM NMDG, and 10 mM HEPES (pH 7.4) and was threaded with a thin platinum/iridium wire to lower high-frequency impedance.
The pH was adjusted to 7.6 at 22°C using 1 M NaOH.
The dose-response curves obtained from these calculations were fitted to a Hill curve using the following equation: M = (MMax)/(1 + ((EC50/dose))^h), [formula] where h is the Hill coefficient, Mmax is the maximal fraction of channels affected, EC50 is the half-maximal effective concentration, and dose is the concentration at which the observation was made.
Current decay and tail current kinetics were fitted to the following equation when a single exponential was used: [formula] and to the following equation when double exponential was used: [formula] where y0 is the initial value, A is the weight of the exponential, and τ is the time constant of the exponential.

[2] = biological target: drosophila Para channel (Drosophila melanogaster, UniProt P35500); conditions: read-out: EC50 for the drosophila channel; Vais H et al. 2003, ATX-II used to inhibit inactivation; cited from earlier work
Chain of drosophila Para channel (P35500 whole entry): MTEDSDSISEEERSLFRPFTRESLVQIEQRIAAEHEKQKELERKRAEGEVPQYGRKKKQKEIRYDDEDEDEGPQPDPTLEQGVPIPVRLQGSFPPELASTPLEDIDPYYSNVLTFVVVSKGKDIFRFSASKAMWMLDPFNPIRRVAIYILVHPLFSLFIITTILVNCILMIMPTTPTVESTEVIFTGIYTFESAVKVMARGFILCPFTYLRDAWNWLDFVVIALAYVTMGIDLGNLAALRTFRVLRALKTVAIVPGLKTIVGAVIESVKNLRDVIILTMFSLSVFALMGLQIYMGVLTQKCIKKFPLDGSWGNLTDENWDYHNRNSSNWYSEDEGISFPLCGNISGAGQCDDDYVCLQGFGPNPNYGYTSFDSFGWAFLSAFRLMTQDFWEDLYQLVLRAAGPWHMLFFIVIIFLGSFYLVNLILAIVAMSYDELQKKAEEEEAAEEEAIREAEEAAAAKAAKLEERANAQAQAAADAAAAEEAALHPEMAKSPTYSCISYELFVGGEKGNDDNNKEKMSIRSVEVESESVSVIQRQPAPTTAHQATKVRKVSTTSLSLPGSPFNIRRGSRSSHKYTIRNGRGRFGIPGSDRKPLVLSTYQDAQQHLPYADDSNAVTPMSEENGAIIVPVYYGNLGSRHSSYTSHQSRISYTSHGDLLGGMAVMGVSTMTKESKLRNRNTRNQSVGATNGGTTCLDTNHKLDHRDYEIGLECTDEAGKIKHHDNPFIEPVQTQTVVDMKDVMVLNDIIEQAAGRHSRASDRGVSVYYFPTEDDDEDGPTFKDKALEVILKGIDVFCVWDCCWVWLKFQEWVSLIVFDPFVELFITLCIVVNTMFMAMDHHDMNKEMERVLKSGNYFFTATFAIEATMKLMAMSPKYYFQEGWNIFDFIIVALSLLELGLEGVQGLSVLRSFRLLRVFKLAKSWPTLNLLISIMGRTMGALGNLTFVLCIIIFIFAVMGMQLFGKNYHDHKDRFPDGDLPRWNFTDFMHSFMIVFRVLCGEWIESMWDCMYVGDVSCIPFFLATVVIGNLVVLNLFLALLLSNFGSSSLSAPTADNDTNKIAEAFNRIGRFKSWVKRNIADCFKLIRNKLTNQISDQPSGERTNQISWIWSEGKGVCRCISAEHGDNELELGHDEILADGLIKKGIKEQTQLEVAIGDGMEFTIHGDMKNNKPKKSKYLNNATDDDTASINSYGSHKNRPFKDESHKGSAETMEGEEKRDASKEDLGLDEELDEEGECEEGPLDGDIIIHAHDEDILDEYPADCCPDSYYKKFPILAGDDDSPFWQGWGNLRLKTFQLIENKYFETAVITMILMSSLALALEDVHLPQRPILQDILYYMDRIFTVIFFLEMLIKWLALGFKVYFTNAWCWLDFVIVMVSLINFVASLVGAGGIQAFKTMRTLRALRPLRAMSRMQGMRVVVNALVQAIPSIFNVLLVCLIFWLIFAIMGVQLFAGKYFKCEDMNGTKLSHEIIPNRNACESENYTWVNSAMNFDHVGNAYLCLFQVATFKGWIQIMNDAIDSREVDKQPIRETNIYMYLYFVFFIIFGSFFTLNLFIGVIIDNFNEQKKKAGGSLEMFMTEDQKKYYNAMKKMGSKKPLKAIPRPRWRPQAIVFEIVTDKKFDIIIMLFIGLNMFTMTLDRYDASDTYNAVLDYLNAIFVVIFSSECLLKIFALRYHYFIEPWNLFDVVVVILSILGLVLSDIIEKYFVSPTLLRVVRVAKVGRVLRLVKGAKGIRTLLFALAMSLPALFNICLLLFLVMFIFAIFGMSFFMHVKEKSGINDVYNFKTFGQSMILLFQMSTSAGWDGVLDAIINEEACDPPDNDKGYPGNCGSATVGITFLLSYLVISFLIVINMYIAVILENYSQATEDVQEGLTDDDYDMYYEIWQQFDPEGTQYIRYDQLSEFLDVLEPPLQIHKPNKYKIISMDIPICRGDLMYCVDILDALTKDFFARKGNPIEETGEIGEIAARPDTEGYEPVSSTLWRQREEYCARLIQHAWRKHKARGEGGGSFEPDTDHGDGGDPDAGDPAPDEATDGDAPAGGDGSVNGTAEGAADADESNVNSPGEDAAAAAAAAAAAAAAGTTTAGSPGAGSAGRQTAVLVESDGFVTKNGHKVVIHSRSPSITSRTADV

[3] = biological target: sodium current of honeybee antennal olfactory receptor neurons; conditions: Kadala A et al. 2011; cited from earlier work

Structure (SMILES) | tail current induction ([1]; 10 µM) | Hill coefficient [1] | relative weight of the slow component of tail current deactivation ([1]; double exponential fit) [%] | time constant of tail current deactivation, first exponential ([1]; double exponential fit) [s] | time constant of tail current deactivation, second exponential ([1]; double exponential fit) [s] | EC50 ([1]; fraction of channels bound vs dose, Hill fit, 1700 conditioning pulses, Para + TipE in oocytes, read-out: half maximal effective concentration (EC50)) | EC50 [2] [nM] | EC50 [3] [nM] | shifts in activation, inactivation, or recovery from inactivation ([1]; 10 µM in extracellular medium, Para co-expressed with TipE) | number of conditioning pulses at which the maximal effect is reached ([1]; 10 µM, tail current amplitude) [pulses] | time constant of deactivation of tail currents (single exponential) ([1]; single exponential fit) [s] | inversion (reversal potential) of tail current ([1]; tail current after 200 conditioning pulses, linear voltage-dependence)
CC(C)C(C(=O)OC(C#N)c1cccc(Oc2ccccc2)c1)c1ccc(Cl)cc1 (centres unmarked) [fenvalerate] | induced a tail current | 1.1817 and 1.18 | 85.4 | 9.9 | 31.8 | 289 nM and ~290 nM |  |  |  |  |  | 
CC1(C)C(C=C(Cl)Cl)C1C(=O)OCc1cccc(Oc2ccccc2)c1 (centres unmarked) [permethrin] | induced tail currents | 0.8263 and 0.83 |  |  |  |  | 12 | 3500 | no significant effect; also recorded: did not induce statistically significant shifts | 200 | 0.93 | approximately +10 mV
